Laboratory results as given in ChEMBL document CHEMBL1136030, “Synthesis and antiaggregant properties of Stabilized analogues of polyunsaturated fatty acid metabolites” (Bioorg Med Chem Lett, 2002).

Tests used:
Oryctolagus cuniculus = organism: Oryctolagus cuniculus; assay: Anti-platelet activity was measured by studying their antagonist effects on rabbit platelets aggregated with U-46,619.; type: functional
Homo sapiens = organism: Homo sapiens; assay: Anti-platelet activity was measured by studying their antagonist effects on human platelets aggregated with collagen; type: functional

SMILES	IC50 (Oryctolagus cuniculus)	IC50 (Homo sapiens)
CCCCC/C=C\C[C@@H](O)/C=C/C=C\C/C=C\CCCC(=O)O	4000 nM	–
CCCCCC(O)c1cccc(CCCCCC(=O)O)c1 (stereo not given)	500 nM	27000 nM
CCCCCC(O)c1cccc(/C=C\CCCC(=O)O)c1 (stereo not given)	900 nM	20000 nM
CCCCCC(O)c1cccc(/C=C\CCCC(=O)O)n1 (stereo not given)	1600 nM	57000 nM
CCCCCC(=O)c1cccc(/C=C\CCCC(=O)O)c1	500 nM	7000 nM
O=C(O)CCn1c2c(c3ccccc31)CC(NS(=O)(=O)c1ccc(F)cc1)CC2 (single isomer, unassigned) [RAMATROBAN]	–	50 nM
